Measurements reported in patent publication US6649595B2, “Regulation of biological events using novel compounds” (ARIAD Gene Therapeutics, Inc., priority 1995, dated 2003).
Like-named read-outs stand apart in the source and are kept apart here.

Target: T1, FKBPwt (Homo sapiens, UniProt P62942)
T1 construct: made in house
Experiment: Competitive fluorescence polarization (FP) binding assay of rapalogs to FKBP

[1] = =IC50/IC50 of rapamycin, C7 rapalogs
[2] = C7 rapalogs, read-out: FKBPwt FP binding assay IC50
[3] = =IC50/IC50 of rapamycin, C24 analogs, Table 4
[4] = rapamycin C24 analogs, Table 4, read-out: FKBPwt FP binding assay IC50
[5] = FKBPwt FP binding assay IC50 (nM)

T1 sequence (P62942 whole entry): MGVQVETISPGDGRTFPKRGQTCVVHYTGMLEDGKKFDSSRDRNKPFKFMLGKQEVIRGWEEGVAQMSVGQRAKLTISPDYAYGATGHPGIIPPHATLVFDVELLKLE
Description: Serial 10-fold dilutions of each analog were prepared in 100% ethanol in glass vials and stored on ice. All other manipulations were performed at room temperature. […] Finally, a probe solution was prepared containing 10 nM AP1491 in 0.1% ethanol/FP buffer, and 100 μl added to each well with mixing.
The plates were stored covered in the dark for approximately 30 min to permit equilibration and then the fluorescence polarization of the sample in each well read on a Jolley FPM-2 FP plate reader (Jolley Consulting and Research, Inc., Grayslake, Ill.) in accordance with the manufacturer's recommendations. The mean polarization (mP units)
for each competitor concentration was usually converted to % total binding by reference to the control values and plotted (y) vs. log molar final concentration of competitor (x). Non-linear least square analysis was used to fit the curve and extract the IC50 using the following equation:
y=M1+(M4−M1)/(1+exp(M2*(M3−x)))
where M3 is the IC50. For incomplete curves the IC50 was determined by interpolation.

Row | Compound | fold loss in affinity (cf rapamycin) [1] | IC50 [2] | fold loss in affinity (vs rapamycin) [3] | IC50 [4] | further results
1 | CCc1ccc([C@@H]2C[C@@H]3CC[C@@H](C)[C@@](O)(O3)C(=O)C(=O)N3CCCC[C@H]3C(=O)O[C@H]([C@H](C)C[C@@H]3CC[C@@H](O)[C@H](OC)C3)CC(=O)[C@H](C)/C=C(\C)[C@@H](O)[C@@H](OC)C(=O)[C@H](C)C[C@H](C)/C=C/C=C/C=C/2C)s1 [Compound 39] | 1.0 | 2.4 nM |  |  | 
2 | COC1CC2CCC(C)C(O)(O2)C(=O)C(=O)N2CCCCC2C(=O)OC(C(C)CC2CCC(O)C(OC)C2)C/C(=N/O)C(C)C=C(C)C(O)C(OC)C(=O)C(C)CC(C)C=CC=CC=C1C (centres unmarked) [Compound 17] |  |  | 269 | 618 nM | 
3 | CCO/N=C1/C[C@@H]([C@H](C)C[C@@H]2CC[C@@H](O)[C@H](OC)C2)OC(=O)[C@@H]2CCCCN2C(=O)C(=O)[C@]2(O)O[C@@H](CC[C@H]2C)C[C@H](OC)/C(C)=C/C=C/C=C/[C@@H](C)C[C@@H](C)C(=O)[C@H](OC)[C@H](O)/C(C)=C/[C@H]1C [Compound 7, Rapamycin (E and Z)-24-(O-ethyloxime)] |  |  | 1287 | 2960 nM | 
4 | COC1CC2CCC(C)C(O)(O2)C(=O)C(=O)N2CCCCC2C(=O)OC(C(C)CC2CCC(O)C(OC)C2)CC(=NOCC(=O)O)C(C)C=C(C)C(O)C(OC)C(=O)C(C)CC(C)C=CC=CC=C1C (single isomer, unassigned) [Compound 14, Rapamycin (E and Z)-24-(O-carboxymethyloxime)] |  |  | 1022 | 2350 nM | 
5 | CO[C@@H]1C[C@H](C[C@@H](C)[C@@H]2CC(=O)[C@H](C)/C=C(\C)[C@@H](O)[C@@H](OC)C(=O)[C@H](C)C[C@H](C)/C=C/C=C/C=C(\C)[C@@H](c3ccc(C(C)(C)C)s3)C[C@@H]3CC[C@@H](C)[C@@](O)(O3)C(=O)C(=O)N3CCCC[C@H]3C(=O)O2)CC[C@H]1O [Compound 41] | 1.3 | 2.9 nM |  |  | 
6 | COC(=O)N[C@@H]1C[C@@H]2CC[C@@H](C)[C@@](O)(O2)C(=O)C(=O)N2CCCC[C@H]2C(=O)O[C@H]([C@H](C)C[C@@H]2CC[C@@H](O)[C@H](OC)C2)CC(=O)[C@H](C)/C=C(\C)[C@@H](O)[C@@H](OC)C(=O)[C@H](C)C[C@H](C)/C=C/C=C/C=C/1C [Compound 31] | 1.1 | 2.6 nM |  |  | 
7 | COC(=O)N[C@H]1C[C@@H]2CC[C@@H](C)[C@@](O)(O2)C(=O)C(=O)N2CCCC[C@H]2C(=O)O[C@H]([C@H](C)C[C@@H]2CC[C@@H](O)[C@H](OC)C2)CC(=O)[C@H](C)/C=C(\C)[C@@H](O)[C@@H](OC)C(=O)[C@H](C)C[C@H](C)/C=C/C=C/C=C/1C [Compound 32] | 1.9 | 4.3 nM |  |  | 
8 | CO[C@@H]1C[C@H](C[C@@H](C)[C@@H]2CC(=O)[C@H](C)/C=C(\C)[C@@H](O)[C@@H](OC)C(=O)[C@H](C)C[C@H](C)/C=C/C=C/C=C(\C)[C@@H](OC(C)C)C[C@@H]3CC[C@@H](C)[C@@](O)(O3)C(=O)C(=O)N3CCCC[C@H]3C(=O)O2)CC[C@H]1O [Compound 29] | 1.0 | 2.2 nM |  |  | 
9 | COC1CC2CCC(C)C(O)(O2)C(=O)C(=O)N2CCCCC2C(=O)OC(C(C)CC2CCC(O)C(OC)C2)CC(=NOCC(C)C)C(C)C=C(C)C(O)C(OC)C(=O)C(C)CC(C)C=CC=CC=C1C (centres unmarked) [Compound 10, Rapamycin (E and Z)-24-(O-isobutyloxime)] |  |  | 890 |  | 
10 | CON=C1CC(C(C)CC2CCC(O)C(OC)C2)OC(=O)C2CCCCN2C(=O)C(=O)C2(O)OC(CCC2C)CC(OC)C(C)=CC=CC=CC(C)CC(C)C(=O)C(OC)C(O)C(C)=CC1C (single isomer, unassigned) [Compound 6, Rapamycin (E and Z)-24-(O-methyloxime)] |  |  | 190 | 438 nM | 
11 | CO[C@@H]1C[C@H](C[C@@H](C)[C@@H]2CC(=O)[C@H](C)/C=C(\C)[C@@H](O)[C@@H](OC)C(=O)[C@H](C)C[C@H](C)/C=C/C=C/C=C(\C)[C@H](c3ccco3)C[C@@H]3CC[C@@H](C)[C@@](O)(O3)C(=O)C(=O)N3CCCC[C@H]3C(=O)O2)CC[C@H]1O [Compound 35] | 13 |  |  |  | IC50 (FKBPwt FP binding assay IC50 (nM), C7 rapalogs): 29 nM
12 | COC1CC2CCC(C)C(O)(O2)C(=O)C(=O)N2CCCCC2C(=O)OC(C(C)CC2CCC(O)C(OC)C2)CC(=NOCC(N)=O)C(C)C=C(C)C(O)C(OC)C(=O)C(C)CC(C)C=CC=CC=C1C (single isomer, unassigned) [Compound 15, Rapamycin (E and Z)-24-(O-carboxamidomethyloxime)] |  |  | 500 | 1150 nM | 
13 | CO[C@@H]1C[C@H](C[C@@H](C)[C@@H]2CC(=O)[C@H](C)/C=C(\C)[C@@H](O)[C@@H](OC)C(=O)[C@H](C)C[C@H](C)/C=C/C=C/C=C(\C)[C@@H](NS(C)(=O)=O)C[C@@H]3CC[C@@H](C)[C@@](O)(O3)C(=O)C(=O)N3CCCC[C@H]3C(=O)O2)CC[C@H]1O [Compound 33] | 1.1 | 2.5 nM |  |  | 
14 | CO[C@@H]1C[C@H](C[C@@H](C)[C@@H]2CC(=O)[C@H](C)/C=C(\C)[C@@H](O)[C@@H](OC)C(=O)[C@H](C)C[C@H](C)/C=C/C=C/C=C(\C)[C@@H](c3ccc(C)s3)C[C@@H]3CC[C@@H](C)[C@@](O)(O3)C(=O)C(=O)N3CCCC[C@H]3C(=O)O2)CC[C@H]1O [Compound 36] |  |  |  |  | fold loss in affinity (cf rapamycin): 1.6; IC50 [5]: 3.7 nM
15 | CO[C@@H]1C[C@H](C[C@@H](C)[C@@H]2CC(=O)[C@H](C)/C=C(\C)[C@@H](O)[C@@H](OC)C(=O)[C@H](C)C[C@H](C)/C=C/C=C/C=C(\C)[C@H](c3ccc(C(C)(C)C)s3)C[C@@H]3CC[C@@H](C)[C@@](O)(O3)C(=O)C(=O)N3CCCC[C@H]3C(=O)O2)CC[C@H]1O [Compound 40] | 1.5 | 3.4 nM |  |  | 
16 | COC1CC2CCC(C)C(O)(O2)C(=O)C(=O)N2CCCCC2C(=O)OC(C(C)CC2CCC(O)C(OC)C2)CC(=NOCC(N)=O)C(C)C=C(C)C(O)C(OC)C(=O)C(C)CC(C)C=CC=CC=C1C (single isomer, unassigned) [Compound 16, Rapamycin (E and Z)-24-(O-carboxamidomethyloxime)] |  |  | 88.7 | 204 nM | 
17 | apamycin (E and Z)-24-(O-benzyloxime) [Compound 11] |  |  |  |  | fold loss in affinity (vs rapamycin): 3627; IC50 (read-out: FKBPwt FP binding assay IC50): 8340 nM
18 | COc1ccc(C2CC3CCC(C)C(O)(O3)C(=O)C(=O)N3CCCCC3C(=O)OC(C(C)CC3CCC(O)C(OC)C3)CC(=O)C(C)C=C(C)C(O)C(OC)C(=O)C(C)CC(C)C=CC=CC=C2C)c(OC)c1 (single isomer, unassigned) [Compound 43] | 8.7 | 20 nM |  |  | 
19 | COC1CC2CCC(C)C(O)(O2)C(=O)C(=O)N2CCCCC2C(=O)OC(C(C)CC2CCC(O)C(OC)C2)C/C(=N\OC(C)(C)C)C(C)C=C(C)C(O)C(OC)C(=O)C(C)CC(C)C=CC=CC=C1C (centres unmarked) [Compound 20] |  |  | 1046 | 2410 nM | 
20 | CO[C@@H]1C[C@H](C[C@@H](C)[C@@H]2CC(=O)[C@H](C)/C=C(\C)[C@@H](O)[C@@H](OC)C(=O)[C@H](C)C[C@H](C)/C=C/C=C/C=C(\C)[C@H](c3c[nH]c4ccccc34)C[C@@H]3CC[C@@H](C)[C@@](O)(O3)C(=O)C(=O)N3CCCC[C@H]3C(=O)O2)CC[C@H]1O [Compound 45] | 2.6 | 5.9 nM |  |  | 
21 | CO[C@@H]1C[C@H](C[C@@H](C)[C@@H]2CC(=O)[C@H](C)/C=C(\C)[C@@H](O)[C@@H](OC)C(=O)[C@H](C)C[C@H](C)/C=C/C=C/C=C(\C)[C@H](c3ccc(C)s3)C[C@@H]3CC[C@@H](C)[C@@](O)(O3)C(=O)C(=O)N3CCCC[C@H]3C(=O)O2)CC[C@H]1O [Compound 37] |  |  |  |  | fold loss in affinity (cf rapamycin): 1.9; IC50 [5]: 4.3 nM
22 | COC1CC2CCC(C)C(O)(O2)C(=O)C(=O)N2CCCCC2C(=O)OC(C(C)CC2CCC(O)C(OC)C2)C/C(=N\O)C(C)C=C(C)C(O)C(OC)C(=O)C(C)CC(C)C=CC=CC=C1C (centres unmarked) [Compound 18] |  |  | 25.7 | 59.1 nM | 
23 | COC1CC2CCC(C)C(O)(O2)C(=O)C(=O)N2CCCCC2C(=O)OC(C(C)CC2CCC(O)C(OC)C2)CC(=NOCC(=O)O)C(C)C=C(C)C(O)C(OC)C(=O)C(C)CC(C)C=CC=CC=C1C (single isomer, unassigned) [Compound 13, Rapamycin (E and Z)-24-(O-carboxymethyloxime)] |  |  | 3461 | 7960 nM | 
24 | CO[C@@H]1C[C@H](C[C@@H](C)[C@@H]2CC(=O)[C@H](C)/C=C(\C)[C@@H](O)[C@@H](OC)C(=O)[C@H](C)C[C@H](C)/C=C/C=C/C=C(\C)[C@@H](c3c[nH]c4ccccc34)C[C@@H]3CC[C@@H](C)[C@@](O)(O3)C(=O)C(=O)N3CCCC[C@H]3C(=O)O2)CC[C@H]1O [Compound 44] | 3.3 | 7.8 nM |  |  | 
25 | CCc1ccc([C@H]2C[C@@H]3CC[C@@H](C)[C@@](O)(O3)C(=O)C(=O)N3CCCC[C@H]3C(=O)O[C@H]([C@H](C)C[C@@H]3CC[C@@H](O)[C@H](OC)C3)CC(=O)[C@H](C)/C=C(\C)[C@@H](O)[C@@H](OC)C(=O)[C@H](C)C[C@H](C)/C=C/C=C/C=C/2C)s1 [Compound 38] | 1.1 | 2.5 nM |  |  | 
26 | COC1CC2CCC(C)C(O)(O2)C(=O)C(=O)N2CCCCC2C(=O)OC(C(C)CC2CCC(O)C(OC)C2)C/C(=N/OC(C)(C)C)C(C)C=C(C)C(O)C(OC)C(=O)C(C)CC(C)C=CC=CC=C1C (centres unmarked) [Compound 19] |  |  | >13043 | > 30000 nM | 
27 | CO[C@H]1C[C@@H]2CC[C@@H](C)[C@@](O)(O2)C(=O)C(=O)N2CCCC[C@H]2C(=O)O[C@H]([C@H](C)C[C@@H]2CC[C@@H](O)[C@H](OC)C2)C/C(=N\OCc2ccccc2)[C@H](C)/C=C(\C)[C@@H](O)[C@@H](OC)C(=O)[C@H](C)C[C@H](C)/C=C/C=C/C=C/1C [Compound 12, apamycin (E and Z)-24-(O-benzyloxime)] |  |  | 616 | 1420 nM | 
